{"source": "patent US10231939B2", "about": "“Hydroxytyrosol and oleuropein compositions for induction of DNA damage, cell death and LSD1 inhibition” (priority 2012, dated 2019)", "tested_on": "human keratinocytes", "assay": "mRNA-Sequencing, human keratinocytes", "type": "cell-based", "description": "Human chronic myelogenous leukemia K562 cells (ATCC No. CCL-243) were obtained from the American Type Culture Collection (Manassas, Va., USA) and maintained in complete-[…] Park Memorial Institute (RPMI) 1640 medium supplemented with 20 mmol/L HEPES (pH 7.4; GIBCO-Invitrogen, Carlsbad, Calif., USA), 10% (v/v) fetal bovine serum (FBS), 2 mmol/L L-glutamine (GIBCO-Invitrogen), and 80 units gentamicin (GIBCO-Invitrogen). Cells were cultured in suspension in a humidified atmosphere of 5% (v/v) CO2 at 37° C. and were maintained in exponential growth phase. For maintenance, cells were passaged twice per week and seeded at ratios 1:10. Human neonatal foreskin keratinocytes transfected with the human papilloma virus (HPV) were grown as monolayers in keratinocyte—Serum Free Medium (SFM) medium (GIBCO-Invitrogen) supplemented with L-glutamine, human epidermal growth factor (EGF), and bovine pituitary extract (BPE) at 37° C., 5% (v/v) CO2. Cells were passaged by trypsinisation and seeded at ratio of 1:3. Cells were seeded at densities of 1×10^6/mL in culture flasks (Nalge Nunc, New York, USA) and treated with hydroxytyrosol (0, 20, 100 μM), for 24 hours at 37° C., 5% (v/v) CO2. mRNA sequencing was performed by TRIZOL extraction and library preparation using Illumina kits according to manufacturer's protocols. Next generation sequencing (NGS) was performed at a depth of approximately 20 million mapped reads per sample to determine the effect of hydroxytyrosol on genome-wide gene expression, in human erythroleukemic K562 cells and human keratinocytes (24 hr treatment, 20 and 100 μM). Reads generated by the Illumina base calling software V1.6 were aligned with Burrows Wheeler Aligner to the human transcriptome database curated by RefSeq (Hg18 build). Raw counts were normalized to adjust for slightly differing data volume across lanes giving the widely used score reads per transcript per million reads. These scores were used to determine relative fold changes and the conventionally used ±1.5 fold-change, which is discernible with qRT-PCR, was defined a significant change in expression. The online program MetaCore (GeneGo Inc. St. Joseph, MI, USA) was used for pathway analysis.", "key": {"[1]": {"conditions": "hydroxytyrosol 24 hr (20 μM per FIG. 18C)"}}, "note": "Values joined by “and” are separate entries in the source; they are usually repeats but may differ in a detail not shown here. Equal values may be shown once.", "data": [{"molecule": "OCCc1ccc(O)c(O)c1", "note": "[HT, 4-(2-hydroxyethyl)-1,2-benzenediol]", "values": [{"measurement": "heme oxygenase 1 (HMOX-1) up-regulated", "setting": "hydroxytyrosol", "result": 15, "unit": "fold"}, {"measurement": "number of genes whose expression is regulated", "setting": "hydroxytyrosol", "result": "~3", "unit": "thousand genes"}, {"measurement": "ELP3 expression Fold Change (UP)", "setting": "[1]", "result": 1.51, "unit": "fold"}, {"measurement": "HDAC5 expression Fold Change (UP)", "setting": "[1]", "result": "1.81 fold and 1.70 fold"}, {"measurement": "HDAC9 expression Fold Change (UP)", "setting": "[1]", "result": 3.00, "unit": "fold"}, {"measurement": "HDAC11 expression Fold Change (UP)", "setting": "[1]", "result": "1.65 fold and 1.54 fold"}, {"measurement": "JHDM1D expression Fold Change (UP)", "setting": "[1]", "result": 1.66, "unit": "fold"}, {"measurement": "KDM2B expression Fold Change (UP)", "setting": "[1]", "result": "1.64 fold and 1.55 fold"}, {"measurement": "KDM3A expression Fold Change (UP)", "setting": "[1]", "result": 1.60, "unit": "fold"}, {"measurement": "KDM5D expression Fold Change (DOWN)", "setting": "[1]", "result": 2.00, "unit": "fold"}, {"measurement": "MLL3 expression Fold Change (DOWN)", "setting": "[1]", "result": 2.00, "unit": "fold"}, {"measurement": "NCOA1 expression Fold Change (UP)", "setting": "[1]", "result": 1.51, "unit": "fold"}, {"measurement": "PRDM1 expression Fold Change (UP)", "setting": "[1]", "result": "2.67 fold and 4.00 fold"}, {"measurement": "PRDM4 expression Fold Change (UP)", "setting": "[1]", "result": 1.56, "unit": "fold"}, {"measurement": "PRDM8 expression Fold Change (UP)", "setting": "[1]", "result": "1.85 fold and 1.64 fold"}, {"measurement": "PRDM11 expression Fold Change (UP)", "setting": "[1]", "result": 3.00, "unit": "fold"}, {"measurement": "PRDM12 expression Fold Change (DOWN)", "setting": "[1]", "result": 1.50, "unit": "fold"}, {"measurement": "PRMT8 expression Fold Change (DOWN)", "setting": "[1]", "result": 2.00, "unit": "fold"}, {"measurement": "SETBP1 expression Fold Change (DOWN)", "setting": "[1]", "result": 2.00, "unit": "fold"}, {"measurement": "SETDB2 expression Fold Change (UP)", "setting": "[1]", "result": 1.75, "unit": "fold"}, {"measurement": "SETMAR expression Fold Change (UP)", "setting": "[1]", "result": 1.53, "unit": "fold"}, {"measurement": "SMYD3 expression Fold Change (DOWN)", "setting": "[1]", "result": 1.55, "unit": "fold"}]}]}
